Measured values from PMC6222829, “Synthesis, Molecular Docking and Anticancer Activity of Diflunisal Derivatives as Cyclooxygenase Enzyme Inhibitors” (Molecules : A Journal of Synthetic Chemistry and Natural …, 2018).
“Also recorded” adds a separate entry of the source. Read-outs that look alike come from different tables or passages of the source.

Key:
[1] = system: HCT116 cell line; parameters: method as in PMID 20658169, PMID 26580554; details: literature value ref 42,43; cited from earlier work
[2] = system: T47D cell line; parameters: method as in PMID 20658169, PMID 26580554; details: literature value ref 42,43; cited from earlier work
[3] = system: PC-3 cell line; parameters: method as in PMID 20658169, PMID 26580554; details: literature value ref 42,43; cited from earlier work
[4] = system: HEK293 cell line; test: MTS cytotoxicity assay, HEK293; type: cell-based, human; details: normal cell line; for IC50: Homo sapiens, HEK293, MTS assay, 72 h incubation
Protocol: (§1) In this project, the colorectal cancer cell line HCT116 (ATCC® CCL-247™), […] prostate cancer cell line PC-3 (ATCC® CRL-1435™), breast cancer cell lines T47D (ATCC® HTB-133™), MCF7 (ATCC® HTB-22™) and finally, epithelial embryonic kidney cell line HEK293 (ATCC® CRL-1573™) were used. All media were completed with %10 fetal bovine serum (FBS) and %1 penicillin streptomycin amphotericin (PSA). All cells were cultured periodically at 37 °C, 5% (v/v) CO2 and 95% (v/v) air in T-75 flasks. Different media were used for the different cell lines based on ATCC standards: MCF7 and HEK293 cell lines were cultured in DMEM High Mmedium (ATCC, 30-2003); T47D and PC-3 cell lines were cultured in RPM 1640 medium (ATCC, 30-2001); HCT116 cell line was cultured in DMEM F12 medium (ATCC, 30-2006). RPM 1640 medium was further completed with 0.2 unit/mL bovine insulin for the T47D cell line. Cells were passaged when they reached %80 confluency in order to support proliferation.
(§2) The effects of the synthesized compounds on the cell viability were tested. Stock solutions for each compound were prepared by measuring 20 mg of each compound and dissolving it in 1 mL DMSO to a final concentration of […], followed by filtration through a 0.2-μm filter (Sartorius AG, Gottingen, Germany). Then stock solutions were diluted as 1/10, 1/100 and 1/1000 in the designated media and applied on the cell lines. In order to determine the effect of DMSO itself, the same dilutions were performed by using DMSO, only and applied on the cell lines. Cell densities used for each cell line in 96 well plate were as follows: for PC-3, HCT116 and HEK293 cell lines 5000 cells/well; for T47D cell lines 20,000 cells/well. Cell viability was measured by the MTS cytotoxicity assay (CellTiter96 AqueousOne Solution; Promega, Southampton, UK) according to the manufacturer’s instructions. 3-(4,5-Dimethylthiazol-2-yl)-5-(3-carboxymethoxyphenyl)-2-(4-sulfo-phenyl)-2H-tetrazolium (MTS) is a yellow tetrazolium salt which is catabolized to formazan by dehydrogenase enzyme in the mitochondria of the living cells. Formazan is a purple compound and the detection in this assay is based on the measurement of formazan compounds by an ELISA plate reader. After incubating the cells for 72 h, 10 µL MTS reagent and 100 µL designated medium was given to the cells followed by 2 h of incubation at 37 °C. Thereafter, the absorbance at 490 nm was measured by an ELISA plate reader. (BioTek Instruments, Inc., Winooski, VT, USA). The activity doses of the compounds were determined according to 50% cell death rate when compared to DMSO, only after 72 h of incubation. […] IC50 values are calculated by the GraphPad prism software.

[5] = system: PC-3 cell line; test: MTS cytotoxicity assay, PC-3; type: cell-based, human; parameters: key to IC50 PC-3: PCV: Promoting cell viability; NSC: No significant change; details: for IC50 PC-3 / IC50: MTS assay, 72 h incubation; for IC50: Homo sapiens, PC-3
Protocol: as §1, §2

[6] = system: T47D cell line; test: MTS cytotoxicity assay, T47D; type: cell-based, human; parameters: key to IC50 T47D: PCV: Promoting cell viability; NSC: No significant change; details: for IC50 T47D / IC50: MTS assay, 72 h incubation; for IC50: Homo sapiens, T47D
Protocol: as §1, §2

[7] = system: HEK293 cell line; test: Annexin V/PI apoptosis assay, HEK293; type: cell-based; details: FITC-Annexin V/PI flow cytometry
Protocol: (§3) Evaluation of the effect of the synthesized compounds on apoptosis was determined by the FITCH-AnnexinV/PI protocol. Damaged cell membrane of necrotic cell enables propidium iodide (PI) to bind DNA and induces a red fluorescence, although it is excluded by non-damaged cells, select live and apoptotic cells. FITCH-Annexin V has the ability to bind to phosphatidylserine which is a specific marker of apoptosis. […] The lower left panel of the quadrant of the cytograms indicates live cells due to exclusion of PI and non-bound Annexin V.
(§4) The upper left panel of the cytogram represents necrotic cells which are positive for PI. Each cytogram of each cell was analyzed and a histogram graph was drawn for further visual information.
Determination of IC50 values was followed by the investigation of effect of the synthesized compounds on apoptosis. Cells were seeded into six well plates at densities of 15,000 cells/well (PC-3, HCT116 and HEK293 cell lines) and 60,000 cells/well (T47D cell lines). After the treatment cells were harvested and washed with ice cold PBS. 1 × Annexin-binding buffer was prepared while the cells were being washed. Working solution of PI (100 µg/mL) was prepared as well by diluting 5 µL of the 1 mg/mL PI stock solution in 45 µL 1 × Annexin-binding buffer. After the precipitation of the cells, they were resuspended in 500 µL 1 × Annexin-binding buffer. Resuspended cells were separated into four groups (Annexin V, PI, Annexin V + PI and NC) each containing 100 µL of suspension. Five µL of the Annexin V conjugate was added to the proper groups. Samples were incubated for 15 min at room temperature. The incubation step was followed by adding 2 µL of the 100 µg/mL PI working solution to the proper groups then the fluorescence was observed by flow cytometry.

[8] = system: PC-3 cell line; test: Annexin V/PI apoptosis assay, PC-3; type: cell-based, human; details: FITC-Annexin V/PI flow cytometry
Protocol: as §3, §4
(§5) Determination of IC50 values was followed by the investigation of effect of the synthesized compounds on apoptosis. Cells were seeded into six well plates at densities of 15,000 cells/well (PC-3, HCT116 and HEK293 cell lines) and 60,000 cells/well (T47D cell lines). After the treatment cells were harvested and washed with ice cold PBS. 1 × Annexin-binding buffer was prepared while the cells were being washed. […] The incubation step was followed by adding 2 µL of the 100 µg/mL PI working solution to the proper groups then the fluorescence was observed by flow cytometry.

[9] = system: HCT116 cell line; test: MTS cytotoxicity assay, HCT116; type: cell-based, human; details: for IC50: Homo sapiens, HCT-116, MTS assay, 72 h incubation
Protocol: as §1, §2

[10] = system: MCF7 cell line; test: MTS cytotoxicity assay, MCF7; type: cell-based; details: Homo sapiens, 72 h incubation
Protocol: as §1, §2

[11] = system: T47D cell line; test: Annexin V/PI apoptosis assay, T47D; type: cell-based, human; details: FITC-Annexin V/PI flow cytometry
Protocol: as §3, §4, §5

[12] = system: HCT116 cell line; test: Annexin V/PI apoptosis assay, HCT116; type: cell-based, human; details: FITC-Annexin V/PI flow cytometry
Protocol: as §3, §4, §5

N.N.[Cl][Pt][Cl] [Cisplatin]
IC50 [1]: 1.25 µM
IC50 [2]: 0.836 µM
IC50 [3]: 39.9 µM

O=C(NNC(=S)Nc1cccc(F)c1)c1cc(-c2ccc(F)cc2F)ccc1O [Compound 4]
IC50 [4]: 617 µM
IC50 PC-3 [5]: PCV
IC50 T47D [6]: PCV

O=C(NNC(=S)Nc1cccc(Cl)c1)c1cc(-c2ccc(F)cc2F)ccc1O [Compound 5]
IC50 [4]: 44.4 µM

O=C(NNC(=S)Nc1cccc(Br)c1)c1cc(-c2ccc(F)cc2F)ccc1O [Compound 6, N-(3-Bromophenyl)-2-[(2′,4′-difluoro-4-hydroxybiphenyl-3-yl)carbonyl]hydrazine carbothioamide]
IC50 [4]: 93 ± 3.43 µM
cytotoxic effect on HEK293 (in words) [4]: did not show cytotoxic effects
anticancer activity against PC-3 (in words) [5]: displayed anti-tumourigenic activity
IC50 [5]: 41.8 ± 3.4 µM
IC50 [6]: 100 ± 2.3 µM
apoptosis / necrosis, HEK293 [7]: did not result in apoptosis
apoptosis / necrosis, PC-3 [8]: increase of late apoptosis markers; also recorded: undergo apoptosis highly

O=C(NNC(=S)Nc1ccc(Br)cc1)c1cc(-c2ccc(F)cc2F)ccc1O [Compound 7, N-(4-Bromophenyl)-2-[(2′,4′-difluoro-4-hydroxybiphenyl-3-yl)carbonyl]hydrazine carbothioamide]
IC50 [4]: 3.17 ± 1.06 µM
IC50 [5]: 11.7 ± 4.2 µM
IC50 [6]: 16.7 ± 2.8 µM

O=C(NC(=S)NNC(=O)c1cc(-c2ccc(F)cc2F)ccc1O)c1ccccc1 [Compound 8, N-({2-[(2′,4′-Difluoro-4-hydroxybiphenyl-3-yl)carbonyl]hydrazinyl}carbonothioyl)benzamide]
IC50 [4]: 5.04 ± 1.5 µM
IC50 [5]: 2.85 ± 3.6 µM
IC50 [6]: 8.07 ± 2 µM
IC50 [9]: 3.68 ± 2.1 µM

COc1ccccc1NC(=S)NNC(=O)c1cc(-c2ccc(F)cc2F)ccc1O [Compound 9, 2-[(2′,4′-Difluoro-4-hydroxybiphenyl-3-yl)carbonyl]-N-(2-methoxyphenyl)hydrazine carbothioamide]
IC50 [4]: 3.02 ± 1.9 µM
IC50 [5]: 1.57 ± 1.4 µM
IC50 [6]: 3.86 ± 0.7 µM
IC50 [9]: 1.83 ± 0.92 µM
IC50 [10]: 3.92 ± 0.27 µM

CCc1ccc(NC(=S)NNC(=O)c2cc(-c3ccc(F)cc3F)ccc2O)cc1 [Compound 10, 2-[(2′,4′-Difluoro-4-hydroxybiphenyl-3-yl)carbonyl]-N-(4-ethylphenyl)hydrazine carbothioamide]
IC50 [4]: 94 ± 3.74 µM
cytotoxic effect on HEK293 (in words) [4]: did not show cytotoxic effects
anticancer activity against PC-3 (in words) [5]: displayed anti-tumourigenic activity
IC50 [5]: 11.7 ± 2.6 µM
IC50 T47D [6]: NSC
apoptosis / necrosis, HEK293 [7]: slight insignificant increase in necrosis; also recorded: did not result in apoptosis
apoptosis / necrosis, PC-3 [8]: increase of late apoptosis markers; also recorded: undergo apoptosis highly

CCCn1c(-c2cc(-c3ccc(F)cc3F)ccc2O)n[nH]c1=S [Compound 11, 5-(2′,4′-Difluoro-4-hydroxybiphenyl-3-yl)-4-propyl-2,4-dihydro-3H-1,2,4-triazole-3-thione]
IC50 [4]: 11.5 ± 0.2 µM
IC50 [5]: 174 ± 6.3 µM
IC50 [6]: 10.1 ± 1.57 µM
IC50 [10]: 22.2 ± 2.3 µM

Oc1ccc(-c2ccc(F)cc2F)cc1-c1n[nH]c(=S)n1-c1cccc(F)c1 [Compound 12, 5-(2′,4′-Difluoro-4-hydroxybiphenyl-3-yl)-4-(3-fluorophenyl)-2,4-dihydro-3H-1,2,4-triazole-3-thione]
IC50 [4]: 10.7 ± 0.96 µM
IC50 [5]: 34 ± 2.1 µM
IC50 [6]: 9.24 ± 1.01 µM
IC50 [10]: 15 ± 1.3 µM

Oc1ccc(-c2ccc(F)cc2F)cc1-c1n[nH]c(=S)n1-c1cccc(Cl)c1 [Compound 13, 4-(3-Chlorophenyl)-5-(2′,4′-difluoro-4-hydroxybiphenyl-3-yl)-2,4-dihydro-3H-1,2,4-triazole-3-thione]
IC50 [4]: 8.7 ± 1.79 µM
IC50 [5]: 34.1 ± 3.7 µM
IC50 [6]: 5.55 ± 2.7 µM
IC50 [10]: 12.9 ± 2.1 µM

Oc1ccc(-c2ccc(F)cc2F)cc1-c1n[nH]c(=S)n1-c1cccc(Br)c1 [Compound 14, 4-(3-Bromophenyl)-5-(2′,4′-difluoro-4-hydroxybiphenyl-3-yl)-2,4-dihydro-3H-1,2,4-triazole-3-thione]
IC50 PC-3 [5]: PCV
IC50 [6]: 11.5 ± 1.8 µM

Oc1ccc(-c2ccc(F)cc2F)cc1-c1n[nH]c(=S)n1-c1ccc(Br)cc1 [Compound 15, 4-(4-Bromophenyl)-5-(2′,4′-difluoro-4-hydroxybiphenyl-3-yl)-2,4-dihydro-3H-1,2,4-triazole-3-thione]
IC50 [4]: 145 ± 2.3 µM
cytotoxic effect on HEK293 (in words) [4]: did not show cytotoxic effects
anticancer activity against PC-3 (in words) [5]: did not show any activity
IC50 [5]: 145 ± 2.8 µM
anticancer activity against T47D (in words) [6]: demonstrated anticancer activity
IC50 [6]: 43.4 ± 2.72 µM
apoptosis / necrosis, T47D [11]: vast late apoptosis; also recorded: largely through late apoptosis
apoptosis / necrosis, HEK293 [7]: did not result in apoptosis
anticancer activity against HCT-116 (in words) [9]: did not show any activity

COc1ccccc1-n1c(-c2cc(-c3ccc(F)cc3F)ccc2O)n[nH]c1=S [Compound 16, 5-(2′,4′-Difluoro-4-hydroxybiphenyl-3-yl)-4-(2-methoxyphenyl)-2,4-dihydro-3H-1,2,4-triazole-3-thione]
IC50 [4]: 53 ± 2.39 µM
cytotoxic effect on HEK293 (in words) [4]: did not show cytotoxic effects
IC50 [5]: 169 ± 3.9 µM
anticancer activity against T47D (in words) [6]: demonstrated anticancer activity
IC50 [6]: 27.3 ± 2.28 µM
apoptosis / necrosis, T47D [11]: resulted in necrosis
apoptosis / necrosis, HEK293 [7]: did not result in apoptosis
anticancer activity against HCT-116 (in words) [9]: displayed activity
IC50 [9]: 6.2 ± 3.1 µM
apoptosis / necrosis, HCT116 [12]: extensive apoptotic effect
